# Measured values taken from PubChem BioAssay AID1996.
# Conditions: buffer; pH 7.4; 200.0 µM
row,solubility kinetic [µg/mL],SMILES
1,16.4,NC(=O)c1cccc(CS(=O)(=O)c2ccc(Cl)cc2)c1
2,2.4,CCN(CC)c1ccc(C(=O)OCC(=O)Nc2ncccn2)cc1
3,1.1,CC(=O)CC(C)(C)Nc1nc2cc([N+](=O)[O-])ccc2o1
4,> 61.7,CN(C(=O)CSc1ncnc2sc3c(c12)CCCC3)C1CCS(=O)(=O)C1 (centres undefined)
5,18,Cc1cc(C(=O)Nc2ncc(C)s2)c2ccccc2n1
6,31.3,CC1COc2ccccc2N1C(=O)c1ccc(Cl)cc1 (centres undefined)
7,< 0.3,CCOC(=O)C(=CNc1cc(C)ccc1[N+](=O)[O-])C(=O)OCC
8,24.6,Cc1ccc(NC(=O)COC(=O)CCc2ccccc2)cc1S(=O)(=O)N1CCOCC1
9,> 54.8,COc1ccc(C(=O)OCC(=O)NCc2cccs2)c(OC)c1OC
10,7,O=S(=O)(c1ccc(Cl)cc1)N1CCN(c2ncnc3sccc23)CC1
11,> 43.9,Cc1ccc(Cn2cccc(NS(C)(=O)=O)c2=O)cc1
12,21,O=C(NCc1ccccn1)c1cccc(S(=O)(=O)N2CCc3ccccc32)c1
13,< 0.6,O=C(Nc1cccc(Cl)c1)OCCOc1ccccc1
14,> 42,CC(C(=O)NC1CCCCCC1)n1cc([N+](=O)[O-])cn1 (centres undefined)
15,> 45,O=C(O)c1cccc(Nc2ccc([N+](=O)[O-])c3nonc23)c1
16,8.8,CCOC(=O)/C=C/C(=O)OCC(=O)Nc1ccc(Cl)cc1Cl
17,25.9,CCOC(=O)C1CCN(Cc2ccc3ccccc3c2)CC1
18,33.9,CC(=O)Nc1ccc(C(=O)CN2C(=O)NC3(CCCCCC3)C2=O)c(F)c1
19,1.3,O=C(NCc1cccs1)C1CC(c2ccc(Cl)cc2)=NO1 (centres undefined)

row,solubility kinetic [µg/mL],SMILES
1,19.3,CCCC(=O)OCCNc1cc(SCCC(=O)OC)c2nonc2c1[N+](=O)[O-]
2,0.8,Cc1cccc(Nc2nc(C)cc(C)c2C#N)c1
3,47,CC(C)CCC(C)NC(=O)Cc1ccc(S(=O)(=O)N2CCOCC2)s1 (centres undefined)
4,< 0.3,CCOc1ccc(NC(=S)c2ccc3ccccc3n2)cc1
5,> 47.6,Cc1c(C(=O)OCC(=O)NCC2CCCO2)oc2ccccc12 (centres undefined)
6,43.7,CN(C)c1nc(NCc2ccccc2)nc(SCC(N)=O)n1
7,> 44.3,COC(=O)c1ccc(NC(=S)NN2CCOCC2)cc1
8,7.7,Cc1noc(C)c1C(=O)Nc1sccc1C(N)=O
9,> 73.1,COC(=O)c1ccccc1S(=O)(=O)N1CCC(C(=O)Nc2ccc(N3CCOCC3)cc2)CC1
10,> 36.3,Cc1c(NCc2cccnc2)cccc1C(=O)O
11,> 51.1,CCCc1nnc(SCC(=O)NC2CCCCC2)n1CCOC
12,41.8,COc1ccc(-c2nc(CCl)cs2)cc1OC.Cl
13,28.7,Cc1ccccc1OCC(=O)O/N=C(\N)c1ccncc1
14,1.9,CC1Cc2ccccc2N1S(=O)(=O)c1ccc(Cl)nc1 (centres undefined)
15,> 47.1,CC1(C(=O)NCc2ccc(F)cc2)Oc2ccccc2NC1=O (centres undefined)
16,1.5,CCc1ccn2cc(-c3cc(-c4ccccc4)no3)nc2c1
17,44.7,CC1CCN(C(=O)c2ccc(NC(=O)c3cccs3)cc2)CC1
18,< 0.3,Cc1ccc(NC(=O)CC(=O)Nc2ccc(C)cc2)cc1
19,0.6,CCc1nonc1NC(=O)c1oc2c(C)c(C)ccc2c1C

row,solubility kinetic [µg/mL],SMILES
1,> 49.6,c1ccc(-c2nc3nc4ccccc4nc3n2CC2CCCO2)cc1 (centres undefined)
2,0.7,Cc1cc(NC(=O)c2cc3cccc([N+](=O)[O-])c3[nH]2)ccc1F
3,46.8,CC(=O)N1CCN(CC(=O)Nc2ccc(C)c(F)c2)CC1.Cl
4,16.5,O=[N+]([O-])/C=C\c1ccc(N2CCOCC2)cc1
5,34.9,O=C(NC12CC3CC(CC(C3)C1)C2)c1ccc([N+](=O)[O-])o1
6,< 0.4,COc1ccc(CNC(=O)c2c(O)c3ccccc3n(C)c2=O)cc1
7,> 32.3,Cc1c(C(=O)NC2CC2)oc2ccccc12
8,> 37.8,Cc1cccn(Cc2c(F)cccc2Cl)c1=O
9,25.7,CC1CCCCC1NC(=O)CN1C(=O)c2ccccc2S1(=O)=O (centres undefined)
10,1.9,CCCc1nc(SCC(=O)NC2CCCC2)c2ccccc2n1
11,38.2,COc1ccc(-c2csc(NC(=O)[C@H](C)N3C(=O)C4CC=CCC4C3=O)n2)cc1OC (some centres undefined)
12,16.2,O=C(NCc1ccccc1)N1CCN(c2ccccc2)CC1
13,16.6,CC(NC(=O)c1ccc(F)cc1Cl)C1CC2CCC1C2 (centres undefined)
14,1.7,Cc1ccc(C(=O)C2CCN(CC(=O)Nc3ccccc3C)CC2)cc1
15,31.8,Cc1nc2ccccn2c1-c1ccnc(=S)[nH]1
16,> 51.1,CCOCCn1c(SC(C)C(C)=O)nc2c1c(=O)[nH]c(=O)n2C (centres undefined)
17,44.1,O=c1oc2ccccc2c(Nc2ccccc2)c1CN1CCCCC1
18,10.5,Cc1ccccc1NC1=NCC(c2ccc([N+](=O)[O-])cc2)S1 (centres undefined)
19,3.1,CCc1nonc1NC(=O)c1oc2ccccc2c1C

row,SMILES,solubility kinetic [µg/mL]
1,Cn1cc(C(=O)N2CCCCC2)c2ccccc21,> 36.3
2,CCN1CCN(CC(=O)Nc2cc(S(=O)(=O)N3CCCCC3)ccc2Cl)CC1.O=C(O)C(=O)O,> 77.9
